Data reported in publication PMC5672791 (Journal of medicinal chemistry, 2015).
Entries after “also recorded” stand apart in the source; their conditions may differ. One block for each molecule: values may come before it. Where a SMILES comes first, the peptide text is derived from it. [ ]: non-standard residue; d: D form.

How the values were obtained:
[1] = molecular target: mMC4R (Mus musculus, UniProt P56450); assay type: cell-based
[2] = molecular target: mMC5R (Mus musculus, UniProt P41149); assay: cAMP based β-galactosidase reporter assay, agonist activity at mMC5R; assay type: cell-based; settings: read-out: mMC5R Agonist EC50; HEK-293 cells, CRE/β-galactosidase reporter; mean ± SEM
Sequence of mMC5R (P41149 whole entry): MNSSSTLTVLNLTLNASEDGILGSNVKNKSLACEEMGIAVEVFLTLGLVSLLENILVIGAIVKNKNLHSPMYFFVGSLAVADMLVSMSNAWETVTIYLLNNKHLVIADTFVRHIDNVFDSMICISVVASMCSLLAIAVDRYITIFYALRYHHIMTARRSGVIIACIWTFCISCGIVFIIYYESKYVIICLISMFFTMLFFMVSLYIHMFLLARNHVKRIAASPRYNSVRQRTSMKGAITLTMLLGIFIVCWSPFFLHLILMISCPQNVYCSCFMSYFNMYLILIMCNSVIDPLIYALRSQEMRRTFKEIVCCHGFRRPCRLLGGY

[3] = molecular target: T1, mMC3R (Mus musculus, UniProt P33033); assay type: cell-based
T1 sequence (P33033 whole entry): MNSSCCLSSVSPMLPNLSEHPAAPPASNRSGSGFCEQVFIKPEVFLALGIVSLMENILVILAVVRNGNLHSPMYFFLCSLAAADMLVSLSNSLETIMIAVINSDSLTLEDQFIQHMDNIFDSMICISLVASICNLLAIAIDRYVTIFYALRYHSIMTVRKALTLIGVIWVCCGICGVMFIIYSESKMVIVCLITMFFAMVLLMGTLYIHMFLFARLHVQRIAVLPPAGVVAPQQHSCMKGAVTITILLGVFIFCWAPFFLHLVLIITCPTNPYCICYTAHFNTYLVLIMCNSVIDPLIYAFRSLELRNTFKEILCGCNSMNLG

[4] = molecular target: T1, mMC3R; assay: cAMP based β-galactosidase reporter assay; assay type: cell-based; settings: Figure 1
[5] = tested on: mMC4R F176K; settings: mutation F176K; cited from earlier work
[6] = tested on: mMC4R mutations (E92K, F253S); settings: cited from earlier work
[7] = tested on: hMC4R; settings: cited from earlier work
[8] = molecular target: hMC3R; settings: cited from earlier work
[9] = tested on: MC4R; settings: cited from earlier work
[10] = Schild analysis, agonist MTII, mean ± SEM

Sequence of mMC4R (P56450 whole entry): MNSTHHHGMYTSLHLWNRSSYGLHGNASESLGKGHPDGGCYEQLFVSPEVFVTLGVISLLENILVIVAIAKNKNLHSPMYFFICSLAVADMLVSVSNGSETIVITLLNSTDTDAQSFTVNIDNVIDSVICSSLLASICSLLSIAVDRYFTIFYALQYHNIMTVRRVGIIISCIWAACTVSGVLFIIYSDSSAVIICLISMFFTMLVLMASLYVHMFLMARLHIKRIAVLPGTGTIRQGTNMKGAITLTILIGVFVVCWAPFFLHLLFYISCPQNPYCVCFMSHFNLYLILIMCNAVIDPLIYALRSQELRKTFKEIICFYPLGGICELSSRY

no activity at the mMC4R up to (concentration) [1]: > 100 µM
mMC4R antagonist pA2 [1, 10]: >100,000
EC50 [2]: > 100000 nM
no activity at the mMC3R up to (concentration) [3]: > 100 µM
mMC3R antagonist pA2 [3, 10]: >100,000
Molecule: C[C@@H]1NC(=O)[C@H](Cc2ccccc2)NC(=O)[C@H](C)NC(=O)[C@H](CC(N)=O)NC(=O)[C@H](Cc2ccccc2)NC(=O)[C@H](Cc2ccccc2)NC(=O)[C@H](CCCNC(=N)N)NC(=O)[C@H](C)NC(=O)[C@H](Cc2ccc(O)cc2)NC(=O)[C@@H]2CCCN2C(=O)[C@H]2CCCN2C(=O)[C@H](Cc2ccc(O)cc2)NC1=O [Peptide 4]

Ki [1]: 160 nM
EC50 [2]: > 100000 nM
Molecule: C[C@@H]1NC(=O)[C@H](CC(N)=O)NC(=O)[C@H](Cc2ccccc2)NC(=O)[C@H](Cc2ccccc2)NC(=O)[C@H](CCCNC(=N)N)NC(=O)[C@H]([C@@H](C)O)NC(=O)[C@H](Cc2ccc(O)cc2)NC(=O)[C@@H]2CCCN2C(=O)[C@H]2CCCN2C(=O)[C@H](Cc2ccc(O)cc2)NC(=O)[C@H]([C@@H](C)O)NC(=O)[C@H](Cc2ccccc2)NC1=O [Peptide 5] (cyclo(YTRFFNAFTY[dP]P))

Molecule: C[C@@H]1NC(=O)[C@H](CC(N)=O)NC(=O)[C@H](Cc2ccccc2)NC(=O)[C@H](Cc2ccccc2)NC(=O)[C@H](CCCNC(=N)N)NC(=O)[C@@H]2CCCN2C(=O)[C@H]2CCCN2C(=O)[C@H](Cc2ccccc2)NC1=O [Peptide 6, c[Pro-Arg-Phe-Phe-Asn-Ala-Phe-DPro]]
partial agonist activity at the mMC3R [4]: lack of agonist activity; also recorded: without any partial agonist activity

Molecule: C[C@@H]1NC(=O)[C@H](CN)NC(=O)[C@H](Cc2ccccc2)NC(=O)[C@H](Cc2ccccc2)NC(=O)[C@H](CCCNC(=N)N)NC(=O)[C@@H]2CCCN2C(=O)[C@H]2CCCN2C(=O)[C@H](Cc2ccccc2)NC1=O [Peptide 22, c[Pro-Arg-Phe-Phe-Dap-Ala-Phe-DPro]]
partial agonist activity at the mMC3R [4]: did not result in partial agonist activity

Molecule: AGRP(83-132): C-terminal AGRP(83-132) peptide (SSRRCVRLHESCLGQQVPCCDPCATCYCRFFNAFCYCRKLGTAMNPCSRT; UniProt O00253 83-132, looked up, fragment)
loss of antagonist potency at mMC4R F176K [5]: complete loss of activity
binding to mMC4R mutations E92K, F253S [6]: unable to bind

Molecule: Ac-c[Cys-Arg-Phe-Phe-Asn-Ala-Phe-Cys]-NH2 [AGRP(110-117)]
fold lower hMC4R binding affinity than AGRP(83-132) ([7]; compared to C-terminal AGRP(83-132)): approximately 36 fold
IC50 ([7]; read-out: IC50 binding affinity at the hMC4R): 127 nM
binding affinity at the hMC3R [8]: no detectable binding

Molecule: HS024
selectivity for the MC4R compared to the MC3R [9]: approximately 20 fold
